# Measured values taken from ChEMBL document CHEMBL1201862, “PubChem BioAssay data set” (2004).
#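 1) Cells in 96-well plates. 2) Compound, 48 h, 5 concentrations. 3) Linear interpolation between surrounding doses. 4) Unreached endpoint = highest concentration. GI50 is the concentration that inhibits growth by half.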 Calls of active or inactive are those of the source. Rule as the data show it: active = GI50 up to about 1.1 µM and inactive = higher.
# Legend:
# Test in all cases: NCI-60 cell line screen, 48 h
# [1] = system: M14
# [2] = system: OVCAR-4
# [3] = system: CCRF-CEM
# [4] = system: A549
# [5] = system: LXFL 529
# [6] = system: HCT-116
# [7] = system: DLD-1
# [8] = system: COLO 205
# [9] = system: UACC-62
# [10] = system: RXF 631
# [11] = system: HL-60
# [12] = system: UO-31
# [13] = system: SK-MEL-5
# [14] = system: DMS-273
# [15] = system: HOP-62
# [16] = system: SNB-75
# [17] = system: IGROV-1
# [18] = system: HOP-92
# [19] = system: LOX IMVI
# [20] = system: SK-MEL-2
# [21] = system: NCI-H460
# [22] = system: Malme-3M
# [23] = system: EKVX
# [24] = system: KM-20L2
# [25] = system: SF-295
# [26] = system: M19-MEL
# [27] = system: HCC 2998
# [28] = system: OVCAR-3
# [29] = system: OVCAR-8
# [30] = system: OVCAR-5
# [31] = system: RPMI-8226
# [32] = system: SNB-19
# [33] = system: SN12C
# [34] = system: SF-539
# [35] = system: SNB-78
# [36] = system: DMS-114
# [37] = system: NCI-H522
# [38] = system: RXF 393
# [39] = system: 786-0
# [40] = system: SK-MEL-28
# [41] = system: MOLT-4
# [42] = system: SF-268
# [43] = system: NCI-H23
# [44] = system: HCT-15
# [45] = system: UACC-257
# [46] = system: HT-29
# [47] = system: CAKI-1
# [48] = system: U-251
# [49] = system: TK-10
# [50] = system: ACHN
# [51] = system: KM12
# [52] = system: SW-620
# [53] = system: A498
# [54] = system: K562
# [55] = system: HOP-18
# [56] = system: NCI-H226
# [57] = system: SK-OV-3
# [58] = system: XF498
# [59] = system: SR
smiles,measurement,setting,value
O=C1[C@H]2ON(c3ccccc3)C(c3ccc([N+](=O)[O-])cc3)[C@H]2C(=O)N1c1ccc(Cc2ccc(N3C(=O)[C@@H]4ON(c5ccccc5)C(c5ccc([N+](=O)[O-])cc5)[C@@H]4C3=O)cc2)cc1 (some centres undefined),GI50,[1],13.5 µM (inactive)
same,GI50,[2],> 100 µM (inactive)
same,GI50,[3],> 100 µM (inactive)
same,GI50,[4],> 100 µM (inactive)
same,GI50,[5],74.6 µM (inactive)
same,GI50,[6],> 100 µM (inactive)
same,GI50,[7],> 100 µM (inactive)
same,GI50,[8],58.7 µM (inactive)
same,GI50,[9],67.3 µM (inactive)
same,GI50,[10],> 100 µM (inactive)
same,GI50,[11],> 100 µM (inactive)
same,GI50,[12],> 100 µM (inactive)
same,GI50,[13],40.1 µM (inactive)
same,GI50,[14],> 100 µM (inactive)
same,GI50,[15],> 100 µM (inactive)
same,GI50,[16],> 100 µM (inactive)
same,GI50,[17],> 100 µM (inactive)
same,GI50,[18],52.4 µM (inactive)
same,GI50,[19],> 100 µM (inactive)
same,GI50,[20],> 100 µM (inactive)
same,GI50,[21],> 100 µM (inactive)
same,GI50,[22],58.6 µM (inactive)
same,GI50,[23],> 100 µM (inactive)
same,GI50,[24],> 100 µM (inactive)
same,GI50,[25],> 100 µM (inactive)
same,GI50,[26],> 100 µM (inactive)
same,GI50,[27],> 100 µM (inactive)
same,GI50,[28],> 100 µM (inactive)
same,GI50,[29],> 100 µM (inactive)
same,GI50,[30],> 100 µM (inactive)
same,GI50,[31],> 100 µM (inactive)
same,GI50,[32],> 100 µM (inactive)
same,GI50,[33],> 100 µM (inactive)
same,GI50,[34],> 100 µM (inactive)
same,GI50,[35],> 100 µM (inactive)
same,GI50,[36],> 100 µM (inactive)
same,GI50,[37],> 100 µM (inactive)
same,GI50,[38],> 100 µM (inactive)
same,GI50,[39],> 100 µM (inactive)
same,GI50,[40],> 100 µM (inactive)
same,GI50,[41],> 100 µM (inactive)
same,GI50,[42],> 100 µM (inactive)
same,GI50,[43],> 100 µM (inactive)
same,GI50,[44],> 100 µM
same,GI50,[45],98.9 µM (inactive)
same,GI50,[46],> 100 µM (inactive)
same,GI50,[47],26.1 µM (inactive)
same,GI50,[48],> 100 µM (inactive)
same,GI50,[49],> 100 µM (inactive)
same,GI50,[50],> 100 µM (inactive)
same,GI50,[51],> 100 µM (inactive)
same,GI50,[52],> 100 µM (inactive)
same,GI50,[53],> 100 µM (inactive)
same,GI50,[54],> 100 µM (inactive)
same,GI50,[55],> 100 µM (inactive)
same,GI50,[56],> 100 µM (inactive)
same,GI50,[57],> 100 µM (inactive)
Cc1ccc(NC(=O)C(=O)C(C(=O)/C=C/c2ccccc2)C2OC(=O)c3ccccc32)c(C)c1 (centres undefined),GI50,[1],> 100 µM (inactive)
same,GI50,[2],> 100 µM (inactive)
same,GI50,[3],> 100 µM (inactive)
same,GI50,[4],> 100 µM (inactive)
same,GI50,[5],> 100 µM (inactive)
same,GI50,[6],> 100 µM (inactive)
same,GI50,[7],> 100 µM (inactive)
same,GI50,[8],> 100 µM (inactive)
same,GI50,[9],> 100 µM (inactive)
same,GI50,[10],> 100 µM (inactive)
same,GI50,[11],> 100 µM (inactive)
same,GI50,[12],> 100 µM (inactive)
same,GI50,[13],> 100 µM (inactive)
same,GI50,[15],> 100 µM (inactive)
same,GI50,[16],> 100 µM (inactive)
same,GI50,[17],> 100 µM (inactive)
same,GI50,[18],> 100 µM (inactive)
same,GI50,[19],> 100 µM (inactive)
same,GI50,[21],> 100 µM (inactive)
same,GI50,[22],> 100 µM (inactive)
same,GI50,[23],> 100 µM (inactive)
same,GI50,[24],> 100 µM (inactive)
same,GI50,[25],> 100 µM (inactive)
same,GI50,[26],> 100 µM (inactive)
same,GI50,[27],> 100 µM (inactive)
same,GI50,[28],> 100 µM (inactive)
same,GI50,[30],> 100 µM (inactive)
same,GI50,[31],60.4 µM (inactive)
same,GI50,[32],> 100 µM (inactive)
same,GI50,[33],> 100 µM (inactive)
same,GI50,[34],> 100 µM (inactive)
same,GI50,[58],> 100 µM (inactive)
same,GI50,[35],> 100 µM (inactive)
same,GI50,[36],> 100 µM (inactive)
same,GI50,[37],> 100 µM (inactive)
same,GI50,[38],> 100 µM (inactive)
same,GI50,[39],> 100 µM (inactive)
same,GI50,[40],> 100 µM (inactive)
same,GI50,[41],77.4 µM (inactive)
same,GI50,[42],> 100 µM (inactive)
same,GI50,[43],> 100 µM (inactive)
same,GI50,[44],> 100 µM
same,GI50,[45],> 100 µM (inactive)
same,GI50,[46],> 100 µM (inactive)
same,GI50,[47],> 100 µM (inactive)
same,GI50,[48],> 100 µM (inactive)
same,GI50,[49],> 100 µM (inactive)
same,GI50,[50],> 100 µM (inactive)
same,GI50,[51],> 100 µM (inactive)
same,GI50,[52],> 100 µM (inactive)
same,GI50,[53],> 100 µM (inactive)
same,GI50,[54],85.7 µM (inactive)
same,GI50,[59],45.4 µM (inactive)
same,GI50,[56],> 100 µM (inactive)
same,GI50,[57],> 100 µM (inactive)
c1ccc(SC(CCCCC(Sc2ccccc2)Sc2ccccc2)Sc2ccccc2)cc1,GI50,[1],> 100 µM (inactive)
same,GI50,[2],> 100 µM (inactive)
same,GI50,[3],> 100 µM (inactive)
same,GI50,[4],> 100 µM (inactive)
same,GI50,[5],> 100 µM (inactive)
same,GI50,[6],> 100 µM (inactive)
same,GI50,[7],> 100 µM (inactive)
same,GI50,[8],> 100 µM (inactive)
same,GI50,[9],> 100 µM (inactive)
same,GI50,[10],> 100 µM (inactive)
same,GI50,[11],> 100 µM (inactive)
same,GI50,[12],> 100 µM (inactive)
same,GI50,[13],> 100 µM (inactive)
same,GI50,[14],> 100 µM (inactive)
same,GI50,[15],> 100 µM (inactive)
same,GI50,[16],> 100 µM (inactive)
same,GI50,[18],> 100 µM (inactive)
same,GI50,[19],> 100 µM (inactive)
same,GI50,[20],> 100 µM (inactive)
same,GI50,[21],> 100 µM (inactive)
same,GI50,[23],> 100 µM (inactive)
same,GI50,[24],> 100 µM (inactive)
same,GI50,[25],> 100 µM (inactive)
same,GI50,[26],> 100 µM (inactive)
same,GI50,[27],> 100 µM (inactive)
same,GI50,[28],> 100 µM (inactive)
same,GI50,[29],> 100 µM (inactive)
same,GI50,[31],> 100 µM (inactive)
same,GI50,[32],> 100 µM (inactive)
same,GI50,[33],> 100 µM (inactive)
same,GI50,[34],> 100 µM (inactive)
same,GI50,[58],> 100 µM (inactive)
same,GI50,[35],> 100 µM (inactive)
same,GI50,[36],> 100 µM (inactive)
same,GI50,[38],> 100 µM (inactive)
same,GI50,[39],> 100 µM (inactive)
same,GI50,[40],> 100 µM (inactive)
same,GI50,[41],> 100 µM (inactive)
same,GI50,[42],> 100 µM (inactive)
same,GI50,[43],> 100 µM (inactive)
same,GI50,[44],> 100 µM
same,GI50,[45],> 100 µM (inactive)
same,GI50,[47],> 100 µM (inactive)
same,GI50,[48],> 100 µM (inactive)
same,GI50,[49],> 100 µM (inactive)
same,GI50,[50],> 100 µM (inactive)
same,GI50,[51],> 100 µM (inactive)
same,GI50,[52],> 100 µM (inactive)
same,GI50,[53],> 100 µM (inactive)
same,GI50,[54],> 100 µM (inactive)
same,GI50,[59],> 100 µM (inactive)
same,GI50,[57],> 100 µM (inactive)
